Source: PMC9312238, “Novel Organoselenium Redox Modulators with Potential Anticancer, Antimicrobial, and Antioxidant Activities” (Antioxidants, 2022)

How the values were obtained:
[1] = test system: MCF-7 cells; assay: cells; type: cell-based, human; details: for IC50: Homo sapiens, MCF7, MTT, 24 h incubation, MCF-7 cells, read-out: MCF7 IC50; for MCF7 TI (IC50 WI-38 / IC50 MCF-7): therapeutic index, ratio of WI-38 IC50 to MCF-7 IC50
Description: (§1) Cells were obtained from the ATCC Company (VACSERA), Cairo, Egypt. MTT assay were performed according to the literature method. More details are in the Supporting Information.
(§2) Recently, OSe compounds gained much attention as possible drug candidates due to their various pharmacological properties. […] Therefore, the anticancer attributes of the newly prepared OSe compounds were estimated using the MTT assay against MCF-7 and HepG2 and compared with their respective cytotoxicity in WI-38 primary cells. The anthracycline drug doxorubicin was used as the standard. […] Moreover, the therapeutic index (TI) was also calculated (according to Equation (1)), which is considered a measure of the selectivity and safety of the synthesized compounds. (1) TI=IC50 for the normal WI38 cells/IC50 for the cancer cells […]
(§3) 1.1. The biological assays
(§4) 1.1.1. The anticancer activity
(§5) The breast adenocarcinoma (MCF-7), Hepatocellular carcinoma (HEPG-2), and nor-mal fibroblast (WI-38) cells were obtained from ATCC via Holding company for biological products and vaccines (VACSERA), Cairo, Egypt.
(§6) DMSO, and fetal bovine serum was obtained from Sigma Aldrich. Dulbecco’s modified Eagle’s medium was used as the culture medium for the cells, and the cytotoxicity was evaluated using the reported MTT assay. Doxorubicin was used as the positive reference, and the IC50 values were obtained from the corresponding dose-response curve.
(§7) This colorimetric assay is based on converting the yellow tetrazolium bromide (MTT) to a purple formazan derivative by mitochondrial succinate dehydrogenase in viable cells. […]
(§8) added were 100 units/ml penicillin and 100µg/ml streptomycin at 37 C in a 5% Co2 incu-bator. The cell lines were seeded in a 96-well plate at a density of 1.0x10^4 cells/well. at 37 C for 48 h under 5% Co2. After incubation, the cells were treated with different concentra-tions of compounds and incubated for 24 h. After 24 h of drug treatment, 20 µl of MTT solution at 5mg/ml was added and incubated for 4 h. Finally, dimethyl sulfoxide (DMSO) in the volume of 100 µl is added to each well to dissolve the purple formazan formed. The colorimetric assay is measured and recorded at an absorbance of 570 nm using a plate […]
(§9) The percentage of the relative cell viability was calculated as (A570 of treated samples/A570 of the untreated sample) X 100. […]

[2] = test system: WI-38 cells; assay: cells; type: cell-based, human; details: Homo sapiens; MTT, 24 h incubation, normal WI-38 cells; read-out: WI38 IC50
Description: as §1, §2, §3, §4, §5, §6, §7, §8, §9

[3] = test system: HepG2 cells; assay: cells; type: cell-based, human; details: for IC50: Homo sapiens, MTT, 24 h incubation, HepG2 cells, read-out: HepG2 IC50; for HepG2 TI (IC50 WI-38 / IC50 HepG2): therapeutic index, ratio of WI-38 IC50 to HepG2 IC50
Description: as §1
Recently, OSe compounds gained much attention as possible drug candidates due to their various pharmacological properties. Our group has reported several OSe candidates with potential anticancer, antimicrobial, and antioxidant activities. Therefore, the anticancer attributes of the newly prepared OSe compounds were estimated using the MTT assay against MCF-7 and HepG2 and compared with their respective cytotoxicity in WI-38 primary cells. The anthracycline drug doxorubicin was used as the standard. The minimal inhibition concentration required to kill 50% of the cells (IC50) was calculated from dose-response curves presented in Table 1. Moreover, the therapeutic index (TI) was also calculated (according to Equation (1)), which is considered a measure of the selectivity and safety of the synthesized compounds. (1) TI=IC50 for the normal WI38 cells/IC50 for the cancer cells […]
as §3, §4
The breast adenocarcinoma (MCF-7), Hepatocellular carcinoma (HEPG-2), and nor-mal fibroblast (WI-38) cells were obtained from ATCC via Holding company for biological products and vaccines (VACSERA), Cairo, Egypt. The reagents RPMI-1640 medium, MTT, DMSO, and fetal bovine serum was obtained from Sigma Aldrich. Dulbecco’s modified Eagle’s medium was used as the culture medium for the cells, and the cytotoxicity was evaluated using the reported MTT assay. Doxorubicin was used as the positive reference, and the IC50 values were obtained from the corresponding dose-response curve.
This colorimetric assay is based on converting the yellow tetrazolium bromide (MTT) to a purple formazan derivative by mitochondrial succinate dehydrogenase in viable cells.
Cell lines were cultured in RPMI-1640 medium with 10% fetal bovine serum. Antibiotics added were 100 units/ml penicillin and 100µg/ml streptomycin at 37 C in a 5% Co2 incu-bator. The cell lines were seeded in a 96-well plate at a density of 1.0x10^4 cells/well. at 37 C for 48 h under 5% Co2. After incubation, the cells were treated with different concentra-tions of compounds and incubated for 24 h. After 24 h of drug treatment, 20 µl of MTT solution at 5mg/ml was added and incubated for 4 h. Finally, dimethyl sulfoxide (DMSO) in the volume of 100 µl is added to each well to dissolve the purple formazan formed. The colorimetric assay is measured and recorded at an absorbance of 570 nm using a plate reader (EXL 800, USA). The percentage of the relative cell viability was calculated as (A570 of treated samples/A570 of the untreated sample) X 100. […]
(§10) Inhibition%= (Ablank-Asample)/(Ablank)*100. (1)

[4] = test system: Escherichia coli; assay: Agar diffusion assay, E. coli; type: cell-based; details: for zone of inhibition at 20 µM: Escherichia coli, inhibition zone diameter, six-mm disks soaked with 20 μM of compound, read-out: E. coli IZD (mm); for E. coli A% (activity index): zone of test compound / zone of standard (ampicillin) x 100
[5] = test system: Staphylococcus aureus; assay: Agar diffusion assay, S. aureus; type: cell-based; details: for zone of inhibition at 20 µM: Staphylococcus aureus, inhibition zone diameter, six-mm disks soaked with 20 μM of compound, read-out: S. aureus IZD (mm); for S. aureus A% (activity index): zone of test compound / zone of standard (ampicillin) x 100
Description: (§11) The antimicrobial activities of the OSe compounds were evaluated against C. albicans yeast, as well as E. coli and S. bacteria, employing the agar well diffusion assay. Furthermore, the MICs (in µM) were determined by the microdilution method according to the reported protocol. More details are in the Supporting Information.
(§12) Compounds were evaluated for their antimicrobial activity against the Gram-negative bacteria Escherichia coli (E. coli) and the Gram-positive bacteria Staphylococcus aureus (S. aureus), as well as the Candida albicans (C. albicans) fungal strain, using the agar diffusion assay. Ampicillin and clotrimazole were used as standards. Indeed, the antimicrobial properties of the OSe compounds were also obtained from the activity index percentage (A%) according to Equation (2). (2) A%=Zone of inhibition by test compound diametre/Zone of inhibition by standard diametre×100 . […]
(§13) 1.1.1. The antimicrobial activity
The antimicrobial activities of the OSe compounds were evaluated against C. albicans yeast as well as E. coli gram-negative and S. aureus gram-positive bacteria employing the agar well diffusion assay. Briefly, a concentration of 1 mM was prepared for each compound by dissolving in DMSO. Paper discs of standard size […] were steri-lized in an autoclave and soaked in 20 µL of the test compounds, and placed in the Petri dishes, which in turn contain a nutrient media (agar 20 g, peptone 5 g, and beef extract 3 g) seeded with the dedicated strain. Incubation lasted for 24 h at 36
(§14) Furthermore, the MICs (in µM) were determined by the microdilution method according to the reported protocol. […]
as §10

[6] = test system: Candida albicans; assay: microbe, parasite or virus in culture; type: cell-based; details: for zone of inhibition at 20 µM: Candida albicans, inhibition zone diameter, six-mm disks soaked with 20 μM of compound, read-out: C. albicans IZD (mm); for C. albicans A% (activity index): zone of test compound / zone of standard (clotrimazole) x 100
Description: as §11, §12, §13
The antimicrobial activities of the OSe compounds were evaluated against C. albicans yeast as well as E. coli gram-negative and S. aureus gram-positive bacteria employing the agar well diffusion assay. […]
compound by dissolving in DMSO. […]
Petri dishes, which in turn contain a nutrient media (agar 20 g, peptone 5 g, and beef extract 3 g) seeded with the dedicated strain. Incubation lasted for 24 h at 36
as §14, §10

SMILES	IC50 [1] [µM]	IC50 [2] [µM]	IC50 [3] [µM]	zone of inhibition at 20 µM [4] [mm]	E. coli A% (activity index) [4] [%]	zone of inhibition at 20 µM [5] [mm]	S. aureus A% (activity index) [5] [%]	melting point [°C]	MCF7 TI (IC50 WI-38 / IC50 MCF-7) [1]	HepG2 TI (IC50 WI-38 / IC50 HepG2) [3]	zone of inhibition at 20 µM [6] [mm]	C. albicans A% (activity index) [6] [%]
O=C(C[Se]c1ccc(N2C(=O)C=CC2=O)cc1)Nc1ccccc1 [Compound 13, 2-((4-(2,5-dioxo-2,5-dihydro-1H-pyrrol-1-yl)phenyl)selanyl)-N-phenylacetamide]	> 100	> 100	> 100	5	22	6	29	169 to 170				
O=CNc1ccc([Se]CC(=O)Nc2ccccc2)cc1 [Compound 17, 2-((4-formamidophenyl)selanyl)-N-phenylacetamide]	> 100	> 100	> 100					143 to 144				
CC(=O)Nc1ccc([Se]CC(=O)Nc2ccccc2)cc1 [Compound 18, 2-((4-acetamidophenyl)selanyl)-N-phenylacetamide]	43.5 ± 2.6	85.1 ± 4.7	47.6 ± 2.8	6	26	8		161 to 162	2	1.8	11	46
O=C(CCl)Nc1ccc([Se]CC(=O)Nc2ccccc2)cc1 [Compound 19]	> 100	> 100	> 100					184.8				
CN(C)C=Nc1ccc([Se]CC(=O)Nc2ccccc2)cc1 [Compound 20, 2-((4-(((dimethylamino)methylene)amino)phenyl)selanyl)-N-phenylacetamide]	36.8 ± 2.4	> 100	40.3 ± 2.5	8	35	9	43	118 to 120	2.7	2.5	11	46
COc1cccc2c1C(=O)c1c(O)c3c(c(O)c1C2=O)C[C@@](O)(C(=O)CO)C[C@@H]3O[C@H]1C[C@H](N)[C@H](O)[C@H](C)O1 [Doxorubicin, doxorubicin, reference compound]			4.5 ± 0.2						1.6	1.5		
